Where a name gives a salt, the structure may show the parent alone.
Legend:
[1] = test system: anti-estriol-3-sulfate antibody immobilized on Sepharose 4B; assay: Cross-reaction of various steroids in the radioimmunoassay (50% inhibition of labeled estriol-3-sulfate binding); parameters: species or system guinea pig; settings: mass ratio of non-labeled estriol-3-sulfate to each steroid required for 50% inhibition of labeled estriol-3-sulfate binding
Description: (§1) A plasma specimen (0.1 ml) diluted with tris-HCl buffer (0.1 mol/liter; pH, 8.3) (containing glutamine (0.1 mol/liter)) was added thereto, and the resulting solution was incubated at 4° C. for 16 hours. The mixture was centrifuged at 3500 rpm for 20 minutes. A 0.2 ml aliquot of each supernatant was taken into a counting vial and admixed with Bray's scintillator, and radioactivity was counted in an Aloka LSC-673 liquid scintillation spectrometer.
The cross-reactivity is determined by calculating the mass ratio of non-labeled estriol-3-sulfate to each steriod required to show 50% inhibition of the labeled estiol-3-sulfate binding to the antibody.

[2] = target: anti-estriol-3-sulfate antibody immobilized on Sepharose 4B; assay: Scatchard plot of [3H]-estriol-3-sulfate binding to immobilized antibody; parameters: species or system guinea pig; settings: immobilized antibody 1:500, incubation at 4° C. for 16 hours
Description: as §1, with “spectrometer. […] FIG. 1 of the accompanying drawing showing the Scatchard plot graph of anti-estriol-3-sulfate antibody immobilized on Sepharose 4B).” for “spectrometer.”

Row | SMILES | Cross-reaction (%) [1] [%] | Cross-reaction (%) ([1]; listed as dehydroepiandrosterone sulfate) | association constant (Ka) [2] [L/mol]
1 | C[C@]12CC[C@@H]3c4cc(O)c(O)cc4CC[C@H]3[C@@H]1CCC2=O [2-Hydroxyestrone] | < 0.001 |  | 
2 | C[C@]12CCC(=O)C=C1CC[C@@H]1[C@@H]2CC[C@]2(C)C(=O)CC[C@@H]12 [4-Androsterone-3,17-dione] | < 0.001 |  | 
3 | C[C@]12CC[C@@H]3c4ccc(O)c(O)c4CC[C@H]3[C@@H]1CCC2=O [4-Hydroxyestrone] | < 0.001 |  | 
4 | C[C@]12CC[C@@H]3c4ccc(O)cc4CC[C@H]3[C@@H]1C[C@H](O)[C@@H]2O [16-Epiestriol] | < 0.001 |  | 
5 | C[C@]12CC[C@@H](O)C[C@@H]1CC[C@@H]1[C@@H]2CC[C@]2(C)C(=O)CC[C@@H]12 [Androsterone] | < 0.001 |  | 
6 | CC(C)CCC[C@@H](C)[C@H]1CC[C@H]2[C@@H]3CC=C4C[C@@H](OS(=O)(=O)O)CC[C@]4(C)[C@H]3CC[C@]12C [Cholesterol sulfate] | 0.081 |  | 
7 | CC(C)CCC[C@@H](C)[C@H]1CC[C@H]2[C@@H]3CC=C4C[C@@H](O)CC[C@]4(C)[C@H]3CC[C@]12C [Cholesterol] | < 0.001 |  | 
8 | C[C@]12C[C@H](O)[C@H]3[C@@H](CCC4=CC(=O)CC[C@@]43C)[C@@H]1CC[C@@H]2C(=O)CO [Corticosterone] | < 0.001 |  | 
9 | C[C@]12CC[C@H](OS(=O)(=O)O)CC1=CC[C@@H]1[C@@H]2CC[C@]2(C)C(=O)CC[C@@H]12 [Dehydroepiandrosterone sulfate] | 0.077 | 0.77 | 
10 | C[C@]12CC[C@H](O)CC1=CC[C@@H]1[C@@H]2CC[C@]2(C)C(=O)CC[C@@H]12 [Dehydroepiandrosterone] | < 0.001 |  | 
11 | C[C@]12CC[C@@H]3c4ccc(OS(=O)(=O)O)cc4CC[C@H]3[C@@H]1CC[C@@H]2O [Estradiol-3-sulfate] | 0.144 |  | 
12 | C[C@]12CC[C@@H]3c4ccc(O)cc4CC[C@H]3[C@@H]1CC[C@@H]2O[C@@H]1O[C@H](C(=O)O)[C@@H](O)[C@H](O)[C@H]1O [Estradiol-17-glucuronide] | < 0.001 |  | 
13 | C[C@]12CC[C@@H]3c4ccc(O)cc4CC[C@H]3[C@@H]1CC[C@@H]2O [Estradiol] | < 0.001 |  | 
14 | C[C@]12CC[C@@H]3c4ccc(O[C@@H]5O[C@H](C(=O)O)[C@@H](O)[C@H](O)[C@H]5O)cc4CC[C@H]3[C@@H]1C[C@@H](O)[C@@H]2O [Estriol-3-glucuronide] | 0.050 |  | 
15 | C[C@]12CC[C@@H]3c4ccc(OS(=O)(=O)O)cc4CC[C@H]3[C@@H]1C[C@@H](O)[C@@H]2O [Estriol-3-sulfate] | 100 |  | 4.3e+09
16 | C[C@]12CC[C@@H]3c4ccc(O)cc4CC[C@H]3[C@@H]1C[C@@H](O[C@@H]1O[C@H](C(=O)O)[C@@H](O)[C@H](O)[C@H]1O)[C@@H]2O [Estriol-16-glucuronide] | < 0.001 |  | 
17 | C[C@]12CC[C@@H]3c4ccc(O)cc4CC[C@H]3[C@@H]1C[C@@H](O)[C@@H]2O[C@@H]1O[C@H](C(=O)O)[C@@H](O)[C@H](O)[C@H]1O [Estriol-17-glucuronide] | < 0.001 |  | 
18 | C[C@]12CC[C@@H]3c4ccc(O)cc4CC[C@H]3[C@@H]1C[C@@H](O)[C@@H]2O [Estriol] | 0.033 |  | 
19 | C[C@]12CC[C@@H]3c4ccc(O[C@@H]5O[C@H](C(=O)O)[C@@H](O)[C@H](O)[C@H]5O)cc4CC[C@H]3[C@@H]1CCC2=O [Estrone glucuronide] | < 0.001 |  | 
20 | COc1ccc2c(c1)CC[C@@H]1[C@@H]2CC[C@]2(C)C(=O)CC[C@@H]12 [Estrone methyl ether] | < 0.001 |  | 
21 | C[C@]12CC[C@@H]3c4ccc(OS(=O)(=O)O)cc4CC[C@H]3[C@@H]1CCC2=O [Estrone sulfate] | 0.060 |  | 
22 | C[C@]12CC[C@@H]3c4ccc(O)cc4CC[C@H]3[C@@H]1CCC2=O [Estrone] | < 0.001 |  | 
23 | CC(=O)[C@H]1CC[C@H]2[C@@H]3CCC4=CC(=O)CC[C@]4(C)[C@H]3CC[C@]12C [Progesterone] | < 0.001 |  | 
24 | C[C@]12CC[C@H]3[C@@H](CCC4=CC(=O)CC[C@@]43C)[C@@H]1CC[C@@H]2OS(=O)(=O)O [Testosterone sulfate] | 0.004 |  | 
25 | C[C@]12CC[C@H]3[C@@H](CCC4=CC(=O)CC[C@@]43C)[C@@H]1CC[C@@H]2O [Testosterone] | < 0.001 |  | 

— patent US4740476A, “Immunoassay for estriol-3-sulfate” (Nihon Medi-Physics Co., Ltd., priority 1984, dated 1988)
